Assay results reported in US20240382485A1, “METHODS OF TREATING ABNORMAL CELL GROWTH” (Verastem, Inc., priority 2021, published 2024).

Experiments:
Assay in all cases: 2D proliferation assay (CellTiter-Glo) with synergy analysis
[1] = tested on: H358 human non-small cell lung cancer (NSCLC) cells; assay type: cell-based; conditions: for effect of doxycycline or minocycline on anti-tumor potency: 2D culture, 7 days, CellTiter-Glo; for synergy with antibiotics in the inhibition of tumor cell proliferation: with doxycycline or minocycline, H358, FIG. 3, Bliss, Loewe, HSA and ZIP analysis
Procedure: (§1) Anti-proliferative effects of an antibiotic agent such as doxycycline (e.g., 5 or 10 μM) or minocycline (e.g., 1.25 μM) in combination with VS-6766 (e.g., 40 nM) or defactinib (e.g., 1 μM) were tested in 2D culture in 3 different human tumor cell lines.
(§2) Human cancer cell lines were grown in 2D conditions. Briefly, cells were seeded in 100 μL of growth medium. After an overnight incubation (17-22 hours), cells were treated with VS-6766+/−minocycline or doxycycline for 7 days. Alternatively, cells were treated with defactinib+/−doxycycline for 7 days. Cell viability was measured using the cell viability CellTiter-Glo assay.
Raw data and metadata files were processed with a custom R-script for single agent and combination activity. Bliss, Loewe, Highest Single Agent (HSA) and ZIP synergy analysis were performed to generate a composite synergy score (e.g., see Malyutina A et al, “Drug combination sensitivity scoring facilitates the discovery of synergistic and efficacious drug combinations in cancer,” PLOS Computational Biology 15 (5): e1006752). Summary graphics and reports were saved for visualization and further analysis.
For example, consider that drug 1 at concentration x1 and drug 2 at concentration x2 were combined to produce the inhibition effect of yc, while their respective single drug effects were y1(x1) and y2(x2). The synergy score was calculated as the difference between yc and the expected effect ye if there is no synergy. Each synergy scoring takes a different model for ye: • 1. HSA: ye is the maximal single drug effect, defining
Dose-response matrices were used to assess anti-proliferative effects of the combination of VS-6766+/−minocycline or doxycycline, and the combination of defactinib+/−doxycycline. […] H358 human non-small cell lung cancer (NSCLC) cells were grown in 2D conditions. Cells were treated with VS-6766+/−minocycline or doxycycline for 7 days. Alternatively, cells were treated with defactinib+/−doxycycline for 7 days. Cell viability was measured using the cell viability CellTiter-Glo assay.
Synergy scores were calculated using a combination of 4 different methods (Bliss, Loewe, HSA and ZIP). Human cancer cell lines were run in a CTG proliferation assay. Raw data and metadata files were processed with a custom R-script for single agent and combination activity. Bliss, Loewe, Highest Single Agent (HSA) and ZIP synergy analysis were performed to generate a composite synergy score. The example used in this figure is VS-6766+doxycycline in H358 cells.
H358 human NSCLC cells were run in a CTG proliferation assay. Raw data and metadata files were processed with a custom R-script for single agent and combination activity. Bliss, Loewe, Highest Single Agent (HSA) and ZIP synergy analysis were performed to generate a composite synergy score. […]

TOV21G ovarian cancer = assay type: cell-based, human; conditions: VS-6766+doxycycline, FIG. 4, Bliss, Loewe, HSA and ZIP analysis
Procedure: as §1, §2
(§3) Raw data and metadata files were processed with a custom R-script for single agent and combination activity. Bliss, Loewe, Highest Single Agent (HSA) and ZIP synergy analysis were performed to generate a composite synergy score (e.g., see Malyutina A et al, “Drug combination sensitivity scoring facilitates the discovery of synergistic and efficacious drug combinations in cancer,” PLOS Computational Biology 15 (5): e1006752). […]
(§4) For example, consider that drug 1 at concentration x1 and drug 2 at concentration x2 were combined to produce the inhibition effect of yc, while their respective single drug effects were y1(x1) and y2(x2). The synergy score was calculated as the difference between yc and the expected effect ye if there is no synergy. […]

H2122 NSCLC = assay type: cell-based, human; conditions: VS-6766+doxycycline, H2122, FIG. 4; Bliss, Loewe, HSA and ZIP analysis
Procedure: as §1, §2, §3, §4

With `CNS(=O)(=O)Nc1nccc(Cc2c(C)c3ccc(Oc4ncccn4)cc3oc2=O)c1F` [VS-6766] the “effect of doxycycline or minocycline on anti-tumor potency” value [1] was “increased anti-tumor potency”, the “synergy with antibiotics in the inhibition of tumor cell proliferation” value [1] was “synergistic” and the “synergy in the inhibition of tumor cell proliferation” value (TOV21G ovarian cancer) was “synergistic effect”. For the same molecule, the “synergy in the inhibition of tumor cell proliferation” value (H2122 NSCLC) was “synergistic effect”.
`CNC(=O)c1ccc(Nc2ncc(C(F)(F)F)c(NCc3nccnc3N(C)S(C)(=O)=O)n2)cc1` [defactinib, reference compound] was tested, and the “effect of doxycycline or minocycline on anti-tumor potency” value [1] was “increased anti-tumor potency” and the “synergy with antibiotics in the inhibition of tumor cell proliferation” value [1] was “synergistic”.
